Data published in US9468647B2, “Methods for the treatment of endometriosis” (Miscon Trading S.A., priority 2003, dated 2016).

Test system: endometriosis
Experiment: Intralesional administration of progesterone in women with endometriosis (case reports)
Assay type: in vivo, human
Details: person, 1 g intracystic and 1 g in each bladder nodule, follow up over 12 months
Description: They were regularly monitored by pain scores (visual analog), direct questionnaire, and ultrasound examination. […] Aspiration of the endometrioma and intracystic instillation of 1 g of progesterone was performed. Cystoscopy was carried out and 1 g of progesterone was instilled in each of the nodules in the bladder.

CC(=O)[C@H]1CC[C@H]2[C@@H]3CCC4=CC(=O)CC[C@]4(C)[C@H]3CC[C@]12C [progesterone]
symptoms on follow up (ovarian endometrioma and bladder wall nodules): remained symptom free | quality of life with regard to pelvic pain and urinary symptoms: good
